In patent US20240400560A1, “BICYCLIC HETEROCYCLIC DERIVATIVE HAVING VIRAL GROWTH INHIBITORY ACTIVITY AND PHARMACEUTICAL COMPOSITION CONTAINING SAME” (Shionogi & Co., Ltd., priority 2021, published 2024):
pIC50: −log10 of the molar value.

Target: SARS-CoV-2 3CL protease (Severe acute respiratory syndrome coronavirus 2, UniProt P0DTD1)
Assay: Inhibitory activity test against SARS-CoV-2 3CL proteases
Format: biochemical
Settings: read-out: IC50 (50% SARS-CoV-2 3CL protease inhibitory concentration)

| Compound | pIC50 |
| --- | --- |
| COc1cc(-c2nc3[nH]c(=O)[nH]c3cc2Cl)cc2c1c(=O)n(Cc1ncn(C)n1)c(=O)n2Cc1cc(F)c(F)c(F)c1 [Compound I-0001] | 8.28 |
| Cn1cnc(Cn2c(=O)c3c(F)cc(-c4cc5c(cc4Cl)NC(=O)C5)c(F)c3n(Cc3cc(F)c(F)c(F)c3)c2=O)n1 [Compound I-0002] | 8.21 |
| COc1cc(-c2nc3c(cc2Cl)NC(=O)C3)cc2c1c(=O)n(Cc1ncn(C)n1)c(=O)n2Cc1cc(F)c(F)c(F)c1 [Compound I-0005] | 8.00 |
| Cn1cnc(Cn2c(=O)c3c(F)cc(-c4cc5cn[nH]c5cc4Cl)c(F)c3n(Cc3cc(F)c(F)c(F)c3)c2=O)n1 [Compound I-0006] | > 7.00 |
| Cn1cnc(Cn2c(=O)c3c(F)cc(-c4nc5c(cc4Cl)NC(=O)C54CC4)cc3n(Cc3cc(F)c(F)c(F)c3)c2=O)n1 [Compound I-0008] | 7.68 |
| Cn1cnc(Cn2c(=O)c3c(F)cc(-c4nc5c(cc4Cl)NC(=O)C5)cc3n(Cc3cc(F)c(F)c(F)c3)c2=O)n1 [Compound I-0009] | 7.68 |
| Cc1cncc(-n2c(=O)c3c(Cl)cc(-c4cc(C#N)ccc4Cl)cc3n(Cc3cc(F)c(F)c(F)c3)c2=O)c1 [Compound I-0012] | > 7.00 |
| Cc1cncc(-n2c(=O)c3c(Cl)cc(-c4cc(CO)ccc4Cl)cc3n(Cc3ccc(F)c(C#N)c3)c2=O)c1 [Compound I-0014] | 7.52 |
| Cc1cncc(-n2c(=O)c3c(Cl)cc(-c4cc(CO)ccc4Cl)cc3n(Cc3cc(F)c(F)c(F)c3)c2=O)c1 [Compound I-0016] | > 7.00 |
| COc1cc(-c2cc(C#N)ccc2Cl)cc2c1c(=O)n(-c1cncc(C)c1)c(=O)n2Cc1cc(F)c(F)c(F)c1 [Compound I-0026] | 8.19 |
| COc1cc(-c2cc(CO)ccc2Cl)cc2c1c(=O)n(-c1cncc(C)c1)c(=O)n2Cc1cc(F)c(F)c(F)c1 [Compound I-0030] | 8.07 |
| COc1nc(-c2cc3c(cc2Cl)NC(=O)C3)cc2c1c(=O)n(Cc1ncn(C)n1)c(=O)n2Cc1cc(F)c(F)c(F)c1 [Compound I-0032] | 8.03 |
| Cc1cncc(-n2c(=O)c3c(F)cc(-c4cc(C#N)ccc4Cl)cc3n(Cc3ccc(F)c(C#N)c3)c2=O)c1 [Compound I-0050] | > 7.00 |
| COc1cc(-c2cc3c(cc2Cl)NC(=O)C3)cc2c1c(=O)n(-c1cncc(C)c1)c(=O)n2Cc1ccc(F)c(C#N)c1 [Compound I-0060] | 8.57 |
| COc1cc(-c2cc(C(C)(C)O)ccc2Cl)cc2c1c(=O)n(-c1cncc(C)c1)c(=O)n2Cc1ccc(F)c(C#N)c1 [Compound I-0061] | 8.54 |
| COc1cc(-c2cc(C(C)=O)ccc2Cl)cc2c1c(=O)n(-c1cncc(C)c1)c(=O)n2Cc1ccc(F)c(C#N)c1 [Compound I-0062] | 8.51 |
| COc1cc(-c2c(Cl)ccc3ncccc23)cc2c1c(=O)n(-c1cncc(C)c1)c(=O)n2Cc1ccc(F)c(C#N)c1 [Compound I-0068] | 8.24 |
| COc1cc(-c2cc(C(C)(C)O)ccc2Cl)cc2c1c(=O)n(-c1cncc(C)c1)c(=O)n2Cc1cc(F)c(F)c(F)c1 [Compound I-0069] | 8.22 |
| COc1cc(-c2cc(NS(C)(=O)=O)ccc2Cl)cc2c1c(=O)n(-c1cncc(C)c1)c(=O)n2Cc1cc(F)c(F)c(F)c1 [Compound I-0070] | 8.01 |
| O=C1Cc2cc(-c3cc(F)c4c(=O)n(-c5cncc(Cl)c5)c(=O)n(Cc5cc(F)c(F)c(F)c5)c4c3)c(Cl)cc2N1 [Compound I-0071] | > 7.00 |

| Compound | pIC50 |
| --- | --- |
| COc1cc(-c2cc(C(C)(C)O)ccc2Cl)cc2c1c(=O)n(-c1cncc(Cl)c1)c(=O)n2Cc1cc(F)c(F)c(F)c1 [Compound I-0075] | 7.74 |
| O=C1Cc2cc(-c3cc(F)c4c(=O)n(-c5cncc(Cl)c5)c(=O)n(Cc5cc(Cl)c(F)cn5)c4c3)c(Cl)cc2N1 [Compound I-0077] | > 7.00 |
| COc1cc(-c2nc(NS(C)(=O)=O)ccc2Cl)cc2c1c(=O)n(-c1cncc(C)c1)c(=O)n2Cc1cc(F)c(F)c(F)c1 [Compound I-0078] | > 7.00 |
| COc1cc(-c2cc(NS(C)(=O)=O)ccc2Cl)cc2c1c(=O)n(-c1cncc(Cl)c1)c(=O)n2Cc1cc(F)c(F)c(F)c1 [Compound I-0079] | > 7.00 |
| Cn1cnc(Cn2c(=O)c3c(F)cc(-c4cc(-c5nnc(N)o5)ccc4Cl)cc3n(Cc3cc(F)c(F)c(F)c3)c2=O)n1 [Compound I-0080] | 7.47 |
| COc1cc(-c2cc3c[nH]nc3cc2Cl)cc2c1c(=O)n(Cc1ncn(C)n1)c(=O)n2Cc1cc(F)c(F)c(F)c1 [Compound I-0115] | 8.03 |
| Cn1cnc(Cn2c(=O)c3c(Cl)cc(-c4cc5c(cc4Cl)NC(=O)C5)cc3n(Cc3cc(Cl)c(F)cn3)c2=O)n1 [Compound I-0117] | > 7.00 |
| COc1cc(-c2cc(S(N)(=O)=O)ccc2Cl)cc2c1c(=O)n(Cc1ncn(C)n1)c(=O)n2Cc1cc(F)c(F)c(F)c1 [Compound I-0118] | > 7.00 |
| Cn1cnc(Cn2c(=O)c3c(F)cc(-c4cc5c(cc4Cl)NC(=O)C54CC4)cc3n(Cc3cc(F)c(F)c(F)c3)c2=O)n1 [Compound I-0119] | 7.64 |
| COc1cc(-c2cc(-c3ncc[nH]3)ccc2Cl)cc2c1c(=O)n(-c1cncc(Cl)c1)c(=O)n2Cc1ccc(F)c(C#N)c1 [Compound I-0120] | > 7.00 |
| Cn1cnc(Cn2c(=O)c3ncc(-c4cc5c(cc4Cl)NC(=O)C5)cc3n(Cc3cc(F)c(F)c(Cl)c3)c2=O)n1 [Compound I-0121] | > 7.00 |
| COc1cc(-c2cc(S(C)(=O)=O)ccc2Cl)cc2c1c(=O)n(Cc1ncn(C)n1)c(=O)n2Cc1cc(F)c(F)c(F)c1 [Compound I-0122] | 7.57 |
| COc1cc(-c2cc(-c3ncc[nH]3)ccc2Cl)cc2c1c(=O)n(Cc1ncn(C)n1)c(=O)n2Cc1cc(F)c(F)c(F)c1 [Compound I-0123] | > 7.00 |
| COc1cc(-c2c(Cl)ccc3ncccc23)cc2c1c(=O)n(Cc1ncn(C)n1)c(=O)n2Cc1cc(F)c(F)c(F)c1 [Compound I-0124] | > 7.00 |
| COc1cc(-c2cc3c(cc2Cl)NC(=O)CC3)cc2c1c(=O)n(Cc1ncn(C)n1)c(=O)n2Cc1cc(F)c(F)c(F)c1 [Compound I-0125] | 7.49 |
| COc1cc(-c2cc(NS(C)(=O)=O)ccc2Cl)cc2c1c(=O)n(Cc1ncn(C)n1)c(=O)n2Cc1cc(F)c(F)c(F)c1 [Compound I-0136] | > 7.00 |
| O=c1[nH]cccc1Cn1c(=O)c2ccc(N3C[C@H]4C[C@@H]3CN4)cc2n(Cc2cc(F)c(F)c(F)c2)c1=O [Compound I-0140] | 8.89 |
| O=c1[nH]cccc1Cn1c(=O)c2ccc(N3C[C@@H]4C[C@H]3CN4)cc2n(Cc2cc(F)c(F)c(F)c2)c1=O [Compound I-0141] | > 7.00 |
| NC1CCN(c2ccc3c(=O)n(Cc4ccc[nH]c4=O)c(=O)n(Cc4cc(F)c(F)c(F)c4)c3c2)C1 (stereo not drawn) [Compound I-0142] | 7.60 |
| COc1cc(-c2cc3c(cc2Cl)NC(=O)C3)cc2c1c(=O)n(-c1cncc(C)c1)c(=O)n2Cc1cc(F)c(F)c(C#N)c1 [Compound I-0161] | 9.12 |

| Compound | pIC50 |
| --- | --- |
| Cn1cnc(Cn2c(=O)c3c(=O)n(C)c(-c4cc(C#N)ccc4Cl)cc3n(Cc3cc(F)c(F)c(Cl)c3)c2=O)n1 [Compound I-0162] | 9.10 |
| COc1cc(-c2cc(C#N)ccc2Cl)cc2c1c(=O)n(-c1cncc(C)c1)c(=O)n2Cc1cc(F)c(F)c(C#N)c1 [Compound I-0165] | 8.92 |
| Cn1cnc(Cn2c(=O)c3c(=O)n(C)c(-c4cc(C#N)ccc4Cl)cc3n(Cc3cc(F)c(F)c(F)c3)c2=O)n1 [Compound I-0169] | 8.57 |
| Cn1cnc(Cn2c(=O)c3c(Cl)cc(-c4cc5c(cc4Cl)NC(=O)C5)cc3n(Cc3cc(F)c(F)c(Cl)c3)c2=O)n1 [Compound I-0171] | 8.49 |
| Cn1cnc(Cn2c(=O)c3c(=O)[nH]c(-c4cc(C#N)ccc4Cl)cc3n(Cc3cc(F)c(F)c(Cl)c3)c2=O)n1 [Compound I-0172] | > 7.00 |
| Cn1cnc(Cn2c(=O)c3c(Cl)cc(-c4cc5cn[nH]c5cc4Cl)cc3n(Cc3cc(F)c(F)c(Cl)c3)c2=O)n1 [Compound I-0173] | > 7.00 |
| COc1nc(-c2cc(C#N)ccc2Cl)cc2c1c(=O)n(Cc1ncn(C)n1)c(=O)n2Cc1cc(F)c(F)c(Cl)c1 [Compound I-0174] | 7.80 |
| Cn1cnc(Cn2c(=O)c3c(Cl)cc(-c4cc(C#N)ccc4Cl)cc3n(Cc3cc(F)c(F)c(Cl)c3)c2=O)n1 [Compound I-0175] | > 7.00 |
| COc1nc(-c2cc(C#N)ccc2Cl)cc2c1c(=O)n(Cc1ncn(C)n1)c(=O)n2Cc1cc(F)c(F)c(F)c1 [Compound I-0176] | 7.48 |
| Cn1cnc(Cn2c(=O)c3c(=O)[nH]c(-c4cc(C#N)ccc4Cl)cc3n(Cc3cc(F)c(F)c(F)c3)c2=O)n1 [Compound I-0177] | 7.47 |
| COc1nc(-c2cc(C#N)ccc2Cl)cc2c1c(=O)n(-c1cncc(Cl)c1)c(=O)n2Cc1cc(F)c(F)c(F)c1 [Compound I-0178] | > 7.00 |
| COc1cc(-c2cc(CC(=O)NC3CCN(C)CC3)ccc2Cl)cc2c1c(=O)n(-c1cncc(Cl)c1)c(=O)n2Cc1cc(Cl)ccc1C [Compound I-0187] | 8.30 |
| COc1cc(-c2cc(S(C)(=N)=O)ccc2Cl)cc2c1c(=O)n(-c1cncc(Cl)c1)c(=O)n2Cc1cc(F)c(F)c(F)c1 (stereo not drawn) [Compound I-0188] | 8.24 |
| COc1cc(-c2cc(CC(=O)NCCN(C)C)ccc2Cl)cc2c1c(=O)n(-c1cncc(Cl)c1)c(=O)n2Cc1cc(Cl)ccc1C [Compound I-0189] | 8.15 |
| COc1cc(-c2cc(CC(N)=O)ccc2Cl)cc2c1c(=O)n(-c1cncc(Cl)c1)c(=O)n2Cc1cc(Cl)ccc1C [Compound I-0191] | > 7.00 |
| CNC(=O)c1ccc(Cl)c(-c2cc(OC)c3c(=O)n(-c4cncc(C)c4)c(=O)n(Cc4ccc(F)c(C#N)c4)c3c2)c1 [Compound I-0192] | > 7.00 |
| COc1cc(-c2cc(C(=O)NCCCO)ccc2Cl)cc2c1c(=O)n(-c1cncc(C)c1)c(=O)n2Cc1ccc(F)c(C#N)c1 [Compound I-0193] | 8.05 |
| COc1cc(-c2cc(C(=O)NCCOCCO)ccc2Cl)cc2c1c(=O)n(-c1cncc(C)c1)c(=O)n2Cc1ccc(F)c(C#N)c1 [Compound I-0196] | 7.96 |
| COc1cc(-c2cc(CC(=O)NC3CCN(C)CC3)ccc2Cl)cc2c1c(=O)n(-c1cncc(Cl)c1)c(=O)n2Cc1cc(F)c(F)c(F)c1 [Compound I-0197] | > 7.00 |
| COc1cc(-c2cc(CC(=O)O)ccc2Cl)cc2c1c(=O)n(-c1cncc(Cl)c1)c(=O)n2Cc1cc(Cl)ccc1C [Compound I-0198] | > 7.00 |
